ChEMBL document CHEMBL4325862, “Identification of novel quinazoline derivatives as potent antiplasmodial agents” (Eur J Med Chem, 2019)
Active and inactive are the calls of the source. The rule behind the calls is not given here.

Experiments:
[1] = system: HFF; experiment: Cytotoxicity against HFF; type: cell-based; details: Homo sapiens
[2] = Cytotoxicity against mouse spleen cells; type: cell-based
[3] = Selectivity index, ratio of IC50 for mouse spleen cells to IC50 for asynchronous form of Plasmodium falciparum 3D7 infected in human erythrocytes; type: toxicity, cell-based; details: read-out: Ratio IC50
[4] = system: Plasmodium falciparum; experiment: Antiplasmodial activity against asynchronous form of Plasmodium falciparum 3D7 infected in human erythrocytes assessed as parasite growth inhibition after 48 hrs by SYBR green1 staining based flow cytometry; type: functional, organism-based; details: 3D7, 48 h
[5] = system: Plasmodium falciparum; experiment: Antiplasmodial activity against Plasmodium falciparum Dd2 infected in human erythrocytes assessed as reduction in [3H]-hypoxanthine incorporation measured after 48 hrs by microbeta liquid scintillation counting method; type: functional, organism-based
[6] = target: T1, Histone-lysine N-methyltransferase EHMT2 (Homo sapiens, UniProt Q96KQ7); experiment: Inhibition of recombinant human N-terminal GST-fused G9a (786 to 1210 residues) expressed in Escherichia coli using biotinylated H3 (1 to 21 residues) as substrate measured after 1 hr in presence of 3H-Adomet by filter binding assay
T1 sequence (Q96KQ7 whole entry): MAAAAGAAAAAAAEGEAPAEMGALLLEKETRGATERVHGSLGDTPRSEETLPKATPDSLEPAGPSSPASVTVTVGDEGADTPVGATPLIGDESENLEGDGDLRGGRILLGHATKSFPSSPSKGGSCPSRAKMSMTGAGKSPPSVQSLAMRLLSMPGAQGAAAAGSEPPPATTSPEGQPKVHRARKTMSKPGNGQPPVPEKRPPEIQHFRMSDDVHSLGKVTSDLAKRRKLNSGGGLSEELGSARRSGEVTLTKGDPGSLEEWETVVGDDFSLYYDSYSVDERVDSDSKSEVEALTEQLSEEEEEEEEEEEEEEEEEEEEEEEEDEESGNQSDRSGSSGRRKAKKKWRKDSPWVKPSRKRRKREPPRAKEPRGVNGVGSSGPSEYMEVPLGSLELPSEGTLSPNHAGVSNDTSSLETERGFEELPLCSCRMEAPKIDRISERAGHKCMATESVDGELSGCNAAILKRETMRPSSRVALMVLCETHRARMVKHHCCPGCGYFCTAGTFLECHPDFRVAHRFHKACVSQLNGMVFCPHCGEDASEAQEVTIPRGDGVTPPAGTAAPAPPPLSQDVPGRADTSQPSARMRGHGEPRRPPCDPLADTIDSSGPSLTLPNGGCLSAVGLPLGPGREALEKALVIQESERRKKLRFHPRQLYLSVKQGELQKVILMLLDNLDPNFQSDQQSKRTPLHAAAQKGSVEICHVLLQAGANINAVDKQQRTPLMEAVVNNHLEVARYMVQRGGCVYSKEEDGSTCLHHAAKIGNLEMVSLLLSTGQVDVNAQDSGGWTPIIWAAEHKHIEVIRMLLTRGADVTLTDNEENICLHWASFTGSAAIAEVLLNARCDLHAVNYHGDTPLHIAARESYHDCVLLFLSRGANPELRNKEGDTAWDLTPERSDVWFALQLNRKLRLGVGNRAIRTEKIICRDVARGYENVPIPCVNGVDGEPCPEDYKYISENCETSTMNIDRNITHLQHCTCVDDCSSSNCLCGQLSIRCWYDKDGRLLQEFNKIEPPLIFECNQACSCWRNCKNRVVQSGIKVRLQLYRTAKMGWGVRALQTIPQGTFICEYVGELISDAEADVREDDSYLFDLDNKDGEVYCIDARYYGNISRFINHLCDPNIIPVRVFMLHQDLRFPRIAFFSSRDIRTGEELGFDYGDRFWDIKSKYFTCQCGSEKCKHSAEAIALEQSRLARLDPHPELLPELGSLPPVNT

[7] = target: DNA (cytosine-5)-methyltransferase 1 (Homo sapiens, UniProt P26358); experiment: Inhibition of recombinant human DNMT1 using biotinylated DNA duplex as substrate measured after 2 hrs in presence of Adomet/[methyl-3H]Adomet by topcount method
Sequence of DNA (cytosine-5)-methyltransferase 1 (P26358 whole entry, the tested form may be a part): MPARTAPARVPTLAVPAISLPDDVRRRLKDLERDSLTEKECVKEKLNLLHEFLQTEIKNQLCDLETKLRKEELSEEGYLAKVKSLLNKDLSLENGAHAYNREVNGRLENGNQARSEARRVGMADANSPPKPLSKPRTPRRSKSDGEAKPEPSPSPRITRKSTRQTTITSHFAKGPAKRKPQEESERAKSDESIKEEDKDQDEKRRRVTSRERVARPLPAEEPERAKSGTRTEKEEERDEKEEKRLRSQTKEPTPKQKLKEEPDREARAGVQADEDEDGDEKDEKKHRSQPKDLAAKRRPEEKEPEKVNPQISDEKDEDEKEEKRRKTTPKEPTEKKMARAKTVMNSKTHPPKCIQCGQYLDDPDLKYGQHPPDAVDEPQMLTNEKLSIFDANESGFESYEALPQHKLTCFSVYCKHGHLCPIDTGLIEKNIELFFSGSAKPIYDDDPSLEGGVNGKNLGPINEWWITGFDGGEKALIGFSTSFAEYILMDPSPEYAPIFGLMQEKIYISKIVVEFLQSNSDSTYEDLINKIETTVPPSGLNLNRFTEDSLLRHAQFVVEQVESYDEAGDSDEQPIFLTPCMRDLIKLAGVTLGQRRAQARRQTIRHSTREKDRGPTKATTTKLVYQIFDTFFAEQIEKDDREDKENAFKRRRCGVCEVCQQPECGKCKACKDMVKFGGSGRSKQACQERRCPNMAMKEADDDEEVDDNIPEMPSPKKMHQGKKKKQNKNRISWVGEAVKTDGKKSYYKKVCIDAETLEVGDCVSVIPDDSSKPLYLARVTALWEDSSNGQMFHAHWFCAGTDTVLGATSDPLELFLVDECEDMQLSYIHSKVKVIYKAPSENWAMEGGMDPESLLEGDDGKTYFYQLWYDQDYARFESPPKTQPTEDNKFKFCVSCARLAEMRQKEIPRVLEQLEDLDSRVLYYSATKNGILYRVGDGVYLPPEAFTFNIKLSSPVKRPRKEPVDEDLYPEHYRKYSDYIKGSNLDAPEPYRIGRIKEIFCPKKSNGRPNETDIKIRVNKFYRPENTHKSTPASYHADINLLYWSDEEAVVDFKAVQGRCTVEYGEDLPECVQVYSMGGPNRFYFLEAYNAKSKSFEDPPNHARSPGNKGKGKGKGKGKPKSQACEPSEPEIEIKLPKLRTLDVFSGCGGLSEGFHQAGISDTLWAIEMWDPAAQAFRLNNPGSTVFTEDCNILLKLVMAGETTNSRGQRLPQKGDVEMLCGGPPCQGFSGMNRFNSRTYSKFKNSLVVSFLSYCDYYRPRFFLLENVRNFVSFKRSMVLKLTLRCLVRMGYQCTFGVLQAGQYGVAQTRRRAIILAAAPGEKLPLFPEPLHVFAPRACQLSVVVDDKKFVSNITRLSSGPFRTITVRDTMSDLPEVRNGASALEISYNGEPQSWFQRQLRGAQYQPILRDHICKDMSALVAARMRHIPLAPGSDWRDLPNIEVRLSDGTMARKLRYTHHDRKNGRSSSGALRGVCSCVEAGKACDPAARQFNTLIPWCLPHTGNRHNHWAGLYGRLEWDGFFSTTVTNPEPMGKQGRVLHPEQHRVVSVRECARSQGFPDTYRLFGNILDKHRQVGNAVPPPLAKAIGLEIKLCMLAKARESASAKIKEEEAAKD

[8] = target: T2, DNA (cytosine-5)-methyltransferase 3A (Homo sapiens, UniProt Q9Y6K1); experiment: Inhibition of recombinant human DNMT3a C-terminal catalytic domain (623 to 908 residues) using 5'-biotinylated/3'-FAM-oligonucleotide as substrate measured after 1 hr in presence of Adomet by fluorescence assay
T2 sequence (Q9Y6K1 whole entry, looked up, the tested form may be a part): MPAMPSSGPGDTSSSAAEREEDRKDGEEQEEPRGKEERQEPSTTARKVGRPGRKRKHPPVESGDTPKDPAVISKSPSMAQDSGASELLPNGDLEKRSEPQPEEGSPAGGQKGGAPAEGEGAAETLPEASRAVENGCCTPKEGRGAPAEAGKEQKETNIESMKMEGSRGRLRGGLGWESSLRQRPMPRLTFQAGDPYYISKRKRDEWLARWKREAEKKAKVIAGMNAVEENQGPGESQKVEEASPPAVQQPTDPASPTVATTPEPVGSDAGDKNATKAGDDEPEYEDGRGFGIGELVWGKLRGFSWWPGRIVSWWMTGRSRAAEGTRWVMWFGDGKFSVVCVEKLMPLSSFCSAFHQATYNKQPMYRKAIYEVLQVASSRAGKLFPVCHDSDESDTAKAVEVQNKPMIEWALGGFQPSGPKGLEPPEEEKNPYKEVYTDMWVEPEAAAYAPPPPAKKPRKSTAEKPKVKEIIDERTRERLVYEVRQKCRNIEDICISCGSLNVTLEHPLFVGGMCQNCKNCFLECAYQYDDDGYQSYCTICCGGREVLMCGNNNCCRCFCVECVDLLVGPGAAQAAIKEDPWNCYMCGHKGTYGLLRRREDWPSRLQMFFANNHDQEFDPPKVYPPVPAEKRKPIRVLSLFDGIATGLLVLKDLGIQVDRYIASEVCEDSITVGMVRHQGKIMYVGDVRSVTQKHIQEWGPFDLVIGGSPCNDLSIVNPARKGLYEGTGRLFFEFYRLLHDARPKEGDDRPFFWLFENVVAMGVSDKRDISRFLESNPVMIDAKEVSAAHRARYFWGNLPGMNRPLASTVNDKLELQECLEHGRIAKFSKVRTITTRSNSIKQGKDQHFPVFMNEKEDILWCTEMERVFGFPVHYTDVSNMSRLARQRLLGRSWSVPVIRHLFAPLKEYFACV

[9] = system: Plasmodium falciparum; experiment: Antiplasmodial activity against asynchronous form of Plasmodium falciparum 3D7 infected in human erythrocytes assessed as parasite growth inhibition at 10 uM after 48 hrs by SYBR green1 staining based flow cytometry relative to control; type: functional; details: 3D7, 48 h
[10] = system: Plasmodium falciparum; experiment: Antiplasmodial activity against asynchronous form of Plasmodium falciparum W2 infected in human erythrocytes assessed as parasite growth inhibition after 48 hrs by SYBR green1 staining based flow cytometry; type: functional, organism-based; details: W2, 48 h
[11] = Plasma concentration in Crl:NRMI mouse at 10 mg/kg, po administered via gavage measured after 180 mins by LC-MS/MS analysis; type: ADME, organism-based
[12] = Plasma concentration in Crl:NRMI mouse at 10 mg/kg, iv measured after 180 mins by LC-MS/MS analysis; type: ADME, organism-based
[13] = Plasma concentration in Crl:NRMI mouse at 10 mg/kg, iv measured after 15 mins by LC-MS/MS analysis; type: ADME, organism-based
[14] = system: Plasmodium berghei; experiment: Antimalarial activity against Plasmodium berghei ANKA infected in BALB/c mouse assessed as reduction in parasitemia at 20 mg/kg, po administered twice daily for 4 days by Giemsa-staining based microscopic analysis; type: functional, organism-based
[15] = Plasma concentration in Crl:NRMI mouse at 10 mg/kg, iv measured after 60 mins by LC-MS/MS analysis; type: ADME, organism-based
[16] = Stability in phosphate buffered saline at pH 7.4 assessed as parent compound remaining after 24 hrs by UV/RP-HPLC analysis; type: physicochemical; details: read-out: Stability
[17] = Plasma concentration in Crl:NRMI mouse at 10 mg/kg, po administered via gavage measured after 60 mins by LC-MS/MS analysis; type: ADME, organism-based
[18] = Plasma concentration in Crl:NRMI mouse at 10 mg/kg, po administered via gavage measured after 30 mins by LC-MS/MS analysis; type: ADME, organism-based
[19] = system: Plasmodium berghei; experiment: Antimalarial activity against Plasmodium berghei ANKA infected in BALB/c mouse assessed as reduction in parasitemia at 20 mg/kg, po administered twice daily for 5 days by Giemsa-staining based microscopic analysis; type: functional, organism-based
[20] = Solubility of the compound in DPBS at >1 ug/ml; type: physicochemical
[21] = system: Plasmodium berghei; experiment: Antimalarial activity against Plasmodium berghei ANKA infected in BALB/c mouse assessed as reduction in parasitemia at 20 mg/kg, po administered twice daily for 4 days measured day 6 to 11 post infection by Giemsa-staining based microscopic analysis; type: functional, organism-based
[22] = target: T2, DNA (cytosine-5)-methyltransferase 3A; experiment: Inhibition of recombinant human DNMT3a C-terminal catalytic domain (623 to 908 residues) at 10 uM using 5'-biotinylated/3'-FAM-oligonucleotide as substrate measured after 1 hr in presence of Adomet by fluorescence assay relative to control
[23] = Plasma concentration in Crl:NRMI mouse at 50 mg/kg, po administered via gavage measured after 180 mins by LC-MS/MS analysis; type: ADME, organism-based
[24] = system: Plasmodium berghei; experiment: Antimalarial activity against Plasmodium berghei ANKA infected in BALB/c mouse assessed as reduction in parasitemia at 50 mg/kg, po administered twice daily (one dose iv and one dose po) for 4 days by Giemsa-staining based microscopic analysis; type: functional, organism-based
[25] = Plasma concentration in Crl:NRMI mouse at 50 mg/kg, po administered via gavage measured after 60 mins by LC-MS/MS analysis; type: ADME, organism-based
[26] = Plasma concentration in Crl:NRMI mouse at 50 mg/kg, iv measured after 60 mins by LC-MS/MS analysis; type: ADME, organism-based
[27] = Stability in phosphate buffered saline at pH 7.4 after 24 hrs by UV/RP-HPLC analysis; type: physicochemical; details: buffer, pH 7.4, 24 h
[28] = Plasma concentration in Crl:NRMI mouse at 50 mg/kg, iv measured after 180 mins by LC-MS/MS analysis; type: ADME, organism-based
[29] = system: Plasmodium berghei; experiment: Antimalarial activity against Plasmodium berghei ANKA infected in BALB/c mouse assessed as reduction in parasitemia at 50 mg/kg, po administered twice daily for 4 days by Giemsa-staining based microscopic analysis; type: functional, organism-based
[30] = system: Plasmodium falciparum 3D7; experiment: Inhibition of Plasmodium falciparum 3D7 HDAC assessed as increase in histone H4 acetylation at 3 times antiplasmodial IC50 relative to control
[31] = Plasma concentration in Crl:NRMI mouse at 50 mg/kg, iv measured after 15 mins by LC-MS/MS analysis; type: ADME, organism-based
[32] = Plasma concentration in Crl:NRMI mouse at 50 mg/kg, po administered via gavage measured after 30 mins by LC-MS/MS analysis; type: ADME, organism-based
[33] = system: Plasmodium berghei; experiment: Antimalarial activity against Plasmodium berghei ANKA infected in BALB/c mouse assessed as reduction in parasitemia at 10 mg/kg, po administered twice daily for 4 days by Giemsa-staining based microscopic analysis; type: functional, organism-based
[34] = Toxicity in BALB/c mouse infected with Plasmodium berghei ANKA assessed as death at 50 mg/kg, po administered twice daily for 4 days; type: organism-based; details: in vivo, 96 h
[35] = system: Plasmodium berghei; experiment: Antimalarial activity against Plasmodium berghei ANKA infected in BALB/c mouse assessed as reduction in parasitemia at 25 mg/kg, po administered twice daily for 4 days by Giemsa-staining based microscopic analysis; type: functional, organism-based
[36] = Acute toxicity in Crl:NRMI mouse assessed as death at 50 mg/kg, iv measured after 15 to 180 mins by LC-MS/MS analysis; type: organism-based; details: in vivo
[37] = Toxicity in BALB/c mouse infected with Plasmodium berghei ANKA assessed as death at 25 mg/kg, po administered twice daily for 4 days; type: organism-based; details: in vivo, 96 h
[38] = system: Plasmodium berghei; experiment: Antimalarial activity against Plasmodium berghei ANKA infected in BALB/c mouse assessed as parasitemia at 25 mg/kg, po administered twice daily for 4 days measured up to 14 days post infection by Giemsa-staining based microscopic analysis (reference value: 4%); type: functional

Compound | IC50 [5] | EC50 [6] | EC50 [7] | EC50 [8] | IC50 [1] | IC50 [2] | selectivity ratio [3] | IC50 [4] | inhibition at 10 µM [9] | IC50 [10] | concentration at 3 h [23] | concentration at 1 h [25] | Stability [27] | concentration at 0.5 h [32] | further results
c1ccc(COc2ccc3c(NC4CCN(Cc5ccccc5)CC4)nc(N4CCN(c5ccccc5)CC4)nc3c2)cc1 |  |  |  |  |  |  |  | 66.9 nM | 100% |  |  |  |  |  | inhibition [22]: 43%
O=C(CCCCSc1nc(-c2ccc(-c3ccccc3)cc2)cc(=O)[nH]1)NO | 4 nM |  |  |  | 3300 nM | 785 nM | 186 | 4 to 6 nM | 96.1 to 97% | 6.6 nM | 70 to 300 nM | 480 to 900 nM | Stable | 670 to 2430 nM | Activity [24]: inactive; concentration at 1 h [26]: 1670 to 2160 nM; concentration at 3 h [28]: 43 to 44 nM; Activity [29]: inactive; fold change (FC) [30]: < 2; concentration at 0.25 h [31]: 10700 to 15200 nM
COc1cc2c(NC3CCN(Cc4ccccc4)CC3)nc(N3CCN(c4ccccc4)CC3)nc2cc1OCc1ccccc1 | 81.3 nM | > 100000 nM | > 100000 nM | 1600 nM | 5630 nM | > 10000 nM | > 295 | 34 nM | 100% | 39.9 nM | 280 to 390 nM | 480 to 700 nM | Stable | 380 to 940 nM | Activity [33]: Active; Activity [34]: Toxic; Activity [35]: Active; Activity [36]: Toxic; Activity [37]: Non-Toxic; Activity [38]: 2%

Continued, in another order:

IC50 [5] | EC50 [6] | EC50 [7] | EC50 [8] | Compound | IC50 [1] | IC50 [2] | selectivity ratio [3] | IC50 [4] | inhibition at 10 µM [9] | IC50 [10] | concentration at 3 h [23] | concentration at 1 h [25] | Stability [27] | concentration at 0.5 h [32] | further results
6.1 nM | 31800 nM | > 100000 nM | 5200 nM | COc1ccc(CCN2CCC(Nc3nc(NCc4ccc(F)cc4)nc4cc(OC)c(OC)cc34)CC2)cc1 | 3220 nM | 800 nM | 44 | 18 nM | 100% | 25.8 nM |  |  |  |  | 
18.5 nM | 137000 nM | > 100000 nM | 8700 nM | COc1cc2nc(NCc3ccc(F)cc3)nc(NC3CCN(C(=O)OC(C)(C)C)CC3)c2cc1OC | 7170 nM | > 10000 nM | > 500 | 18.7 to 18.9 nM | 100% | 43.6 nM |  |  |  |  | concentration at 3 h [11]: 30 nM; concentration at 3 h [12]: 220 to 460 nM; concentration at 0.25 h [13]: 3410 to 5110 nM; Activity [14]: Active; concentration at 1 h [15]: 930 to 1110 nM; remaining at 24 h [16]: 60%; concentration at 1 h [17]: 100 to 280 nM; concentration at 0.5 h [18]: 120 to 130 nM; Activity [19]: Active; solubility [20]: Insoluble; Activity [21]: inactive
